pIC50: −log10 of the molar value. Calls of active or inactive are those of the source. The rule behind the calls is not given here.
Columns and labels:
[1] = system: HCT-116; test: Antiproliferative activity against human HCT116 cells after 72 hrs by sulforhodamine B assay; assay type: functional, cell-based; settings: HCT-116, 72 h
[2] = system: SK-HEP1; test: Antiproliferative activity against human SKHEP1 cells after 72 hrs by sulforhodamine B assay; assay type: functional, cell-based; settings: SK-HEP1, 72 h
[3] = system: MDA-MB-231; test: Antiproliferative activity against human MDA-MB-231 cells after 72 hrs by sulforhodamine B assay; assay type: functional, cell-based; settings: MDA-MB-231, 72 h
[4] = system: SNU-638; test: Antiproliferative activity against human SNU638 cells after 72 hrs by sulforhodamine B assay; assay type: functional, cell-based; settings: SNU-638, 72 h
[5] = system: A549; test: Antiproliferative activity against human A549 cells after 72 hrs by sulforhodamine B assay; assay type: functional, cell-based; settings: A549, 72 h
[6] = system: MCF7; test: Antiproliferative activity against human MCF7 cells after 72 hrs by sulforhodamine B assay; assay type: functional, cell-based; settings: MCF7, 72 h
[7] = system: MRC5; test: Antiproliferative activity against human MRC5 cells after 72 hrs by sulforhodamine B assay; assay type: cell-based; settings: MRC5, 72 h
[8] = system: HEK293; test: Antiproliferative activity against HEK293 cells after 72 hrs by sulforhodamine B assay; assay type: cell-based; settings: Homo sapiens, HEK293, 72 h
[9] = biological target: PI3-kinase p110-alpha/p85-alpha (Homo sapiens, UniProt P42336); test: Inhibition of recombinant N-terminal His6-tagged full length PI3K p110alpha (unknown origin)/recombinant untagged full length p85alpha (unknown origin) expressed in baculovirus infected Sf21 insect cells by ELISA
Sequence of PI3-kinase p110-alpha/p85-alpha (P27986 whole entry): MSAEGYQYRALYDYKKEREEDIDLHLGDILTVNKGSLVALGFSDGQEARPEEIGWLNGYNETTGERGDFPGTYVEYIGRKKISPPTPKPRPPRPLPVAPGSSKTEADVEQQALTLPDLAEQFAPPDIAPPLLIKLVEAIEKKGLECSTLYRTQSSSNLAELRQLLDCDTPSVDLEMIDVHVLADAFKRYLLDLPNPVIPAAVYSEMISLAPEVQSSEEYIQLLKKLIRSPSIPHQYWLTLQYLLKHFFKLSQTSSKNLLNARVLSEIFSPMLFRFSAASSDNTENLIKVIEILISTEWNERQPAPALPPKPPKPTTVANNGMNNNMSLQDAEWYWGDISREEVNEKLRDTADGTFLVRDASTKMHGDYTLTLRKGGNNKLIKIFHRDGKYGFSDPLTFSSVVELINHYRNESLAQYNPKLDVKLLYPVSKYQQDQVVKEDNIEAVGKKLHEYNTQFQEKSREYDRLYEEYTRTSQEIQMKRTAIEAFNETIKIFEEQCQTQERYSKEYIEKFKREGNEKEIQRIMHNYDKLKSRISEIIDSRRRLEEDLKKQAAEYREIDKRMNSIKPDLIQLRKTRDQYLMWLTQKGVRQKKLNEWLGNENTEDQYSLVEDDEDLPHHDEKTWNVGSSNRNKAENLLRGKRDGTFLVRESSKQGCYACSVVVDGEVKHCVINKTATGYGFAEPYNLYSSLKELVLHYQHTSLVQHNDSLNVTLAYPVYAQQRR
Sequence of PI3-kinase p110-alpha/p85-alpha (P42336 whole entry): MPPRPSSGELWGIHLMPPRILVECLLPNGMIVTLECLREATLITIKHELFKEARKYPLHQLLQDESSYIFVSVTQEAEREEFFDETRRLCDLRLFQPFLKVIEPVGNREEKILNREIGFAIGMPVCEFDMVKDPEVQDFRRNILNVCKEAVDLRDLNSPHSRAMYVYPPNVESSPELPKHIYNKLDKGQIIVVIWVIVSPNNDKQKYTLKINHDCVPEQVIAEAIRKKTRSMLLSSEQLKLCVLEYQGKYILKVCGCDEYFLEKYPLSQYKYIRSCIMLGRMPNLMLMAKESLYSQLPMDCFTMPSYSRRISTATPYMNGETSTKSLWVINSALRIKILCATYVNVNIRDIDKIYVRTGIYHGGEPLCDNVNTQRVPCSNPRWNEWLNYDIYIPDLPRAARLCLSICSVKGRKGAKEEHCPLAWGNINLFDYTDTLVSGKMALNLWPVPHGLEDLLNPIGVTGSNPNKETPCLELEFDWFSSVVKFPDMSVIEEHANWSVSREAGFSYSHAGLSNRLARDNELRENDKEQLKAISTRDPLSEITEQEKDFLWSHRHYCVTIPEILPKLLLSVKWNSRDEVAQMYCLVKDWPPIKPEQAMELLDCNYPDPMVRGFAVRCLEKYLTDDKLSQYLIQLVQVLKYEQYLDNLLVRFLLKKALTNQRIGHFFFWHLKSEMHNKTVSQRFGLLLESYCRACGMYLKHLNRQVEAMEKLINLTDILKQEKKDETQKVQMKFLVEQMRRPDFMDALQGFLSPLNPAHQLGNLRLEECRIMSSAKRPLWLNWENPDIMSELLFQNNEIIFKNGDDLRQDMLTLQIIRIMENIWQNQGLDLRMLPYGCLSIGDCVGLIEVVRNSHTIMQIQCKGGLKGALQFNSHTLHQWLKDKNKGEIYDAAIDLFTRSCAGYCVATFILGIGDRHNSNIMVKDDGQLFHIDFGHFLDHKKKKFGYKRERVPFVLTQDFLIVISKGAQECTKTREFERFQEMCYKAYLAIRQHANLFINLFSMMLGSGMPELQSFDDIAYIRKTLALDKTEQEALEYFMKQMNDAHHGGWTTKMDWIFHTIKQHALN

[10] = biological target: PI3K p110 beta/p85 alpha (Homo sapiens, UniProt P42338); test: Inhibition of N-terminal His6-tagged recombinant full-length PI3Kbeta (unknown origin)/untagged recombinant full length p85alpha expressed in baculovirus infected Sf21 insect cells by ELISA
Sequence of PI3K p110 beta/p85 alpha (P27986 whole entry, canonical isoform): as the sequence (P27986 whole entry) above
Sequence of PI3K p110 beta/p85 alpha (P42338 whole entry, canonical isoform): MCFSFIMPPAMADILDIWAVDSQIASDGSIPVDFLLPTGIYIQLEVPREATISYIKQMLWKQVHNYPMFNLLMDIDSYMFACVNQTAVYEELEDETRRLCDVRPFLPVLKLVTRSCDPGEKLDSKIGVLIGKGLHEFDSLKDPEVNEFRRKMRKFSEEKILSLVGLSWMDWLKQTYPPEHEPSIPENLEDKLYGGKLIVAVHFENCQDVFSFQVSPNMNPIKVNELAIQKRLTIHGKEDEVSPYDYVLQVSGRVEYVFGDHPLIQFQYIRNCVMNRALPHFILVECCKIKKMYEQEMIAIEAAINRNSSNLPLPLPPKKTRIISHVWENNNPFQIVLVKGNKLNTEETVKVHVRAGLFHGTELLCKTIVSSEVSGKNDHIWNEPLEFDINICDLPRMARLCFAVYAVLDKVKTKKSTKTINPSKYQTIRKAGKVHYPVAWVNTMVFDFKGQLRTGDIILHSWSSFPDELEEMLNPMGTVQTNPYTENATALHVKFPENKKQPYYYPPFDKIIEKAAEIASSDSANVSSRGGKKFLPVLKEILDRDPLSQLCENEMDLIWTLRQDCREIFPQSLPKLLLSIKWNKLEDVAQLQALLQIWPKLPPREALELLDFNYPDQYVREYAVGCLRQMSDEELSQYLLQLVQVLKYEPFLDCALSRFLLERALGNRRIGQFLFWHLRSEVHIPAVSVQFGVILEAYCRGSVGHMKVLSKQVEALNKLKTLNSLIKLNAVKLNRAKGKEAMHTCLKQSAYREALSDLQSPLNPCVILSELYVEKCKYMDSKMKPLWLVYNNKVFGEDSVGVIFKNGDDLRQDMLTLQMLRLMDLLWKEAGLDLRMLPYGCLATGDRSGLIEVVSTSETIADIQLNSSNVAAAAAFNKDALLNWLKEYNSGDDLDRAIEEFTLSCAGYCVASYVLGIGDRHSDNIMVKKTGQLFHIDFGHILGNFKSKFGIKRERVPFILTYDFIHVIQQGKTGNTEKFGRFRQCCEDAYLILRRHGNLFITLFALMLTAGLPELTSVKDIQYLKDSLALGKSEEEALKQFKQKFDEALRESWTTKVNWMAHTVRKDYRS

[11] = biological target: Phosphatidylinositol 4,5-bisphosphate 3-kinase catalytic subunit gamma isoform (Homo sapiens, UniProt P48736); test: Inhibition of recombinant human N-terminal His6-tagged full length PI3K p120gamma expressed in baculovirus infected Sf21 insect cells by ELISA
Sequence of Phosphatidylinositol 4,5-bisphosphate 3-kinase catalytic subunit gamma isoform (P48736 whole entry, canonical isoform): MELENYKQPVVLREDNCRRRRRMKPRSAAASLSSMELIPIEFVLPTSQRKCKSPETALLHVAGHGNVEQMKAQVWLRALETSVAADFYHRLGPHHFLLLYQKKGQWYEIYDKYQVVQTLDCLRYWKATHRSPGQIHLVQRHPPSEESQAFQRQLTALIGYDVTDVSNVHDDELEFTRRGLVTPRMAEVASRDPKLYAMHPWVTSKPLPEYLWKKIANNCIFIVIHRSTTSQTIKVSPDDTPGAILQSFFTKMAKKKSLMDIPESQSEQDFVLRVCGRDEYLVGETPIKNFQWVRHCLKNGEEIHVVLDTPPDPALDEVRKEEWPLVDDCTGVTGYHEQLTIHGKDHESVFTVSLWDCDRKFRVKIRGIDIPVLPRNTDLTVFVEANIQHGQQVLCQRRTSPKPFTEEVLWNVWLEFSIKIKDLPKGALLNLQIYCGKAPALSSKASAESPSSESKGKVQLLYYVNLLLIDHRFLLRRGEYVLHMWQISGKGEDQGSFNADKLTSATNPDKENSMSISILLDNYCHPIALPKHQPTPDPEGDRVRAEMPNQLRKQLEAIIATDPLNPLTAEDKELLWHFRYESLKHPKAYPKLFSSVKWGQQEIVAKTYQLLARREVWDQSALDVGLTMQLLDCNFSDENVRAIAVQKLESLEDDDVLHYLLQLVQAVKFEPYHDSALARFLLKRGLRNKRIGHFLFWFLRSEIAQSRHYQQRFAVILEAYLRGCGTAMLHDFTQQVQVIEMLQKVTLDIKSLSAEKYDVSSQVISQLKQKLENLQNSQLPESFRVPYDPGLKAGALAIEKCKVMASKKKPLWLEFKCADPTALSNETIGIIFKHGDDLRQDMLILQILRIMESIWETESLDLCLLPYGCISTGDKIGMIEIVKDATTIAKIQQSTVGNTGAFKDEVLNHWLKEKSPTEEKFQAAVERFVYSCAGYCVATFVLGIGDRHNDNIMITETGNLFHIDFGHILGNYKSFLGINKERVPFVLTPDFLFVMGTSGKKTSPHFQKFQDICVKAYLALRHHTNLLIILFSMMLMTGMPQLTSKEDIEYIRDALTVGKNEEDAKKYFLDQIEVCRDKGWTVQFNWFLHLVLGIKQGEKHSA

[12] = biological target: PI3-kinase p110-delta/p85-alpha (Homo sapiens, UniProt O00329); test: Inhibition of recombinant N-terminal full length human PI3K p110delta/recombinant untagged full length human p85alpha expressed in baculovirus infected Sf21 insect cells by ELISA
[13] = biological target: Phosphatidylinositol 4,5-bisphosphate 3-kinase catalytic subunit alpha isoform (Homo sapiens) (UniProt P42336); test: Inhibition of PI3Kalpha phosphorylation in human HCT116 cells at 0.5 to 2 uM after 24 hrs by Western blot analysis; assay type: cell-based
Sequence of Phosphatidylinositol 4,5-bisphosphate 3-kinase catalytic subunit alpha isoform (Homo sapiens) (P42336 whole entry, canonical isoform): as the sequence (P42336 whole entry) above

[14] = biological target: Phosphatidylinositol 4,5-bisphosphate 3-kinase catalytic subunit alpha isoform (Homo sapiens) (UniProt P42336); test: Inhibition of PI3Kalpha in human HCT116 cells assessed as reduction in Akt phosphorylation at Ser473 residues at 0.5 to 2 uM after 24 hrs by Western blot analysis; assay type: cell-based
[15] = biological target: Phosphatidylinositol 4,5-bisphosphate 3-kinase catalytic subunit alpha isoform (Homo sapiens) (UniProt P42336); test: Inhibition of PI3Kalpha in human HCT116 cells assessed as reduction in GSK3beta phosphorylation at 0.5 to 2 uM after 24 hrs by Western blot analysis; assay type: cell-based
[16] = biological target: Phosphatidylinositol 4,5-bisphosphate 3-kinase catalytic subunit alpha isoform (Homo sapiens) (UniProt P42336); test: Inhibition of PI3Kalpha in human HCT116 cells assessed as reduction in Akt expression level at Ser473 residues at 1 uM after 8 hrs by DAPI staining based confocal microscopy; assay type: cell-based
[17] = system: HCT-116; test: Cell cycle arrest in human HCT116 cells assessed as accumulation at subG1 phase at 0.5 uM after 24 hrs by propidium iodide staining based flow cytometry (reference value: 2.25%); assay type: functional
[18] = system: HCT-116; test: Cell cycle arrest in human HCT116 cells assessed as accumulation at G0/G1 phase at 0.5 uM after 24 hrs by propidium iodide staining based flow cytometry (reference value: 44.01%); assay type: functional
[19] = system: HCT-116; test: Cell cycle arrest in human HCT116 cells assessed as accumulation at S phase at 0.5 uM after 24 hrs by propidium iodide staining based flow cytometry (reference value: 11.36%); assay type: functional
[20] = system: HCT-116; test: Cell cycle arrest in human HCT116 cells assessed as accumulation at G2/M phase at 0.5 uM after 24 hrs by propidium iodide staining based flow cytometry (reference value: 22.24%); assay type: functional
[21] = system: HCT-116; test: Cell cycle arrest in human HCT116 cells assessed as accumulation at subG1 phase at 1 uM after 24 hrs by propidium iodide staining based flow cytometry (reference value: 2.25%); assay type: functional
[22] = system: HCT-116; test: Cell cycle arrest in human HCT116 cells assessed as accumulation at G0/G1 phase at 1 uM after 24 hrs by propidium iodide staining based flow cytometry (reference value: 44.01%); assay type: functional
[23] = system: HCT-116; test: Cell cycle arrest in human HCT116 cells assessed as accumulation at S phase at 1 uM after 24 hrs by propidium iodide staining based flow cytometry (reference value: 11.36%); assay type: functional
[24] = system: HCT-116; test: Cell cycle arrest in human HCT116 cells assessed as accumulation at G2/M phase at 1 uM after 24 hrs by propidium iodide staining based flow cytometry (reference value: 22.24%); assay type: functional
[25] = system: HCT-116; test: Cell cycle arrest in human HCT116 cells assessed as accumulation at subG1 phase at 2 uM after 24 hrs by propidium iodide staining based flow cytometry (reference value: 2.25%); assay type: functional
[26] = system: HCT-116; test: Cell cycle arrest in human HCT116 cells assessed as accumulation at G0/G1 phase at 2 uM after 24 hrs by propidium iodide staining based flow cytometry (reference value: 44.01%); assay type: functional
[27] = system: HCT-116; test: Cell cycle arrest in human HCT116 cells assessed as accumulation at S phase at 2 uM after 24 hrs by propidium iodide staining based flow cytometry (reference value: 11.36%); assay type: functional
[28] = system: HCT-116; test: Cell cycle arrest in human HCT116 cells assessed as accumulation at G2/M phase at 2 uM after 24 hrs by propidium iodide staining based flow cytometry (reference value: 22.24%); assay type: functional
[29] = system: HCT-116; test: Induction of apoptosis in human HCT116 cells assessed as viable cells at 1 uM after 48 hrs by Annexin V-FITC/propidium iodide staining based flow cytometry (reference value: 94.06%); assay type: functional; settings: HCT-116, 48 h, read-out: Activity
[30] = system: HCT-116; test: Induction of apoptosis in human HCT116 cells assessed as early apoptotic cells at 1 uM after 48 hrs by Annexin V-FITC/propidium iodide staining based flow cytometry (reference value: 3.72%); assay type: functional
[31] = system: HCT-116; test: Induction of apoptosis in human HCT116 cells assessed as late apoptotic cells at 1 uM after 48 hrs by Annexin V-FITC/propidium iodide staining based flow cytometry (reference value: 1.43%); assay type: functional
[32] = system: HCT-116; test: Induction of apoptosis in human HCT116 cells assessed as necrotic cells at 1 uM after 48 hrs by Annexin V-FITC/propidium iodide staining based flow cytometry (reference value: 0.79%); assay type: functional
[33] = system: HCT-116; test: Induction of apoptosis in human HCT116 cells assessed as viable cells at 2 uM after 48 hrs by Annexin V-FITC/propidium iodide staining based flow cytometry (reference value: 94.06%); assay type: functional; settings: HCT-116, 48 h, read-out: Activity
[34] = system: HCT-116; test: Induction of apoptosis in human HCT116 cells assessed as early apoptotic cells at 2 uM after 48 hrs by Annexin V-FITC/propidium iodide staining based flow cytometry (reference value: 3.72%); assay type: functional
[35] = system: HCT-116; test: Induction of apoptosis in human HCT116 cells assessed as late apoptotic cells at 2 uM after 48 hrs by Annexin V-FITC/propidium iodide staining based flow cytometry (reference value: 1.43%); assay type: functional
[36] = system: HCT-116; test: Induction of apoptosis in human HCT116 cells assessed as necrotic cells at 2 uM after 48 hrs by Annexin V-FITC/propidium iodide staining based flow cytometry (reference value: 0.79%); assay type: functional
[37] = system: HCT-116; test: Induction of apoptosis in human HCT116 cells assessed as viable cells at 4 uM after 48 hrs by Annexin V-FITC/propidium iodide staining based flow cytometry (reference value: 94.06%); assay type: functional; settings: HCT-116, 48 h, read-out: Activity
[38] = system: HCT-116; test: Induction of apoptosis in human HCT116 cells assessed as early apoptotic cells at 4 uM after 48 hrs by Annexin V-FITC/propidium iodide staining based flow cytometry (reference value: 3.72%); assay type: functional
[39] = system: HCT-116; test: Induction of apoptosis in human HCT116 cells assessed as late apoptotic cells at 4 uM after 48 hrs by Annexin V-FITC/propidium iodide staining based flow cytometry (reference value: 1.43%); assay type: functional
[40] = system: HCT-116; test: Induction of apoptosis in human HCT116 cells assessed as necrotic cells at 4 uM after 48 hrs by Annexin V-FITC/propidium iodide staining based flow cytometry (reference value: 0.79%); assay type: functional
[41] = system: HCT-116; test: Induction of apoptosis in human HCT116 cells assessed as increase in cleaved caspase 9 level at 4 uM after 48 hrs by Western blot analysis; assay type: functional, cell-based
[42] = system: HCT-116; test: Induction of apoptosis in human HCT116 cells assessed as increase in cleaved caspase 3 level at 4 uM after 48 hrs by Western blot analysis; assay type: functional, cell-based
[43] = system: HCT-116; test: Induction of apoptosis in human HCT116 cells assessed as increase in cleaved PARP level at 4 uM after 48 hrs by Western blot analysis; assay type: functional, cell-based
[44] = biological target: Phosphatidylinositol 4,5-bisphosphate 3-kinase catalytic subunit alpha isoform (Homo sapiens) (UniProt P42336); test: Inhibition of PI3Kalpha in human HCT116 cells assessed as reduction in Akt phosphorylation at Ser473 residues after 24 hrs by Western blot analysis; assay type: cell-based
[45] = biological target: Phosphatidylinositol 4,5-bisphosphate 3-kinase catalytic subunit alpha isoform (Homo sapiens) (UniProt P42336); test: Inhibition of PI3Kalpha in human HCT116 cells assessed as reduction in GSK3beta phosphorylation after 24 hrs by Western blot analysis; assay type: cell-based
[46] = system: HCT-116; test: Induction of apoptosis in human HCT116 cells assessed as decrease in Bcl-2 level at 1 to 4 uM after 48 hrs by Western blot analysis; assay type: functional, cell-based
[47] = system: HCT-116; test: Induction of apoptosis in human HCT116 cells assessed as increase in Bax level at 1 to 4 uM after 48 hrs by Western blot analysis; assay type: functional, cell-based
[48] = system: HCT-116; test: Induction of apoptosis in human HCT116 cells assessed as increase in cytochrome C level at 1 to 4 uM after 48 hrs by Western blot analysis; assay type: functional, cell-based
[49] = system: HCT-116; test: Upregulation of p27 protein expression in human HCT116 cells at 0.5 to 2 uM after 24 hrs by Western blot analysis; assay type: functional, cell-based
[50] = system: HCT-116; test: Downregulation of cyclin D1 protein expression in human HCT116 cells at 0.5 to 2 uM after 24 hrs by Western blot analysis; assay type: functional, cell-based
[51] = system: HCT-116; test: Downregulation of CDK2 protein expression in human HCT116 cells at 0.5 to 2 uM after 24 hrs by Western blot analysis; assay type: functional, cell-based

CCCCS(=O)(=O)Nc1cc(-c2ccc3ncnc(NCCN(C)C)c3c2)cnc1OC
pIC50 [1]: 6.80
pIC50 [2]: 6.55
pIC50 [3]: 6.55
pIC50 [4]: 6.32
pIC50 [5]: 5.88
pIC50 [6]: 5.49
pIC50 [7]: 4.73
pIC50 [8]: 4.90
pIC50 [9]: 7.87
pIC50 [10]: 6.40
pIC50 [11]: 6.93
pIC50 [12]: 6.99
inhibition [13]: Active
inhibition [14]: Active
inhibition [15]: Active
inhibition [16]: Active
Activity [17]: 3.57%
Activity [18]: 46.16%
Activity [19]: 10.3%
Activity [20]: 20.53%
Activity [21]: 2.91%
Activity [22]: 54.1%
Activity [23]: 13.02%
Activity [24]: 15.33%
Activity [25]: 2.51%
Activity [26]: 61.01%
Activity [27]: 13.65%
Activity [28]: 10.99%
viability at 1 µM [29]: 85.5%
Activity [30]: 10.13%
Activity [31]: 2.89%
Activity [32]: 1.5%
viability at 2 µM [33]: 84.7%
Activity [34]: 10.2%
Activity [35]: 3.7%
Activity [36]: 1.39%
viability at 4 µM [37]: 83.3%
Activity [38]: 11.11%
Activity [39]: 4.6%
Activity [40]: 1.02%
Activity [41]: Active
Activity [42]: Active
Activity [43]: Active
inhibition [44]: Dose-dependent effect
inhibition [45]: Dose-dependent effect
Activity [46]: Active
Activity [47]: Active
Activity [48]: Active
Activity [49]: Active
Activity [50]: Active
Activity [51]: Active

COc1ncc(-c2ccc3ncnc(NCCN(C)C)c3c2)cc1NS(=O)(=O)c1ccc(F)cc1
pIC50 [1]: 5.49
pIC50 [2]: 5.02
pIC50 [3]: 5.91
pIC50 [4]: 5.92
pIC50 [5]: 5.62
pIC50 [6]: 5.91

CCCCS(=O)(=O)Nc1cc(-c2ccc3ncnc(NCc4ccncc4)c3c2)cnc1OC
pIC50 [1]: 5.24
pIC50 [2]: 5.05
pIC50 [3]: 5.36
pIC50 [4]: 5.18
pIC50 [5]: 5.03
pIC50 [6]: 4.73

Reference: ChEMBL document CHEMBL4219088, “Novel 4-aminoquinazoline derivatives induce growth inhibition, cell cycle arrest and apoptosis via PI3Kα inhibition” (Bioorg Med Chem, 2018)
